Assay results reported in patent US20050239853A1, “New compounds” (priority 2004, published 2005).
Counter-ions that a name gives are not always drawn.

system: not given; assay: not given; settings: not given

| SMILES | melting point [°C] |
| --- | --- |
| O=C(CC1SC(NC2CC3C=CC2C3)=NC1=O)Nc1ccc(F)cc1 (stereo not drawn) [Example 101, 2-[2-(Bicyclo[2.2.1]hept-5-en-2-ylamino)-4-oxo-4,5-dihydro-1,3-thiazol-5-yl]-N-(4-fluorophenyl)acetamide] | 215 |
| O=C(CC1SC(N2CCCCC2)=NC1=O)Nc1ccccc1Cl (stereo not drawn) [Example 98, N-(2-Chlorophenyl)-2-(4-oxo-2-piperidin-1-yl-4,5-dihydro-1,3-thiazol-5-yl)acetamide] | 177 |
| Cc1c(Cl)cccc1NC(=O)CC1SC(NC2CC3C=CC2C3)=NC1=O (stereo not drawn) [Example 73, 2-[2-(Bicyclo[2.2.1]hept-5-en-2-ylamino)-4-oxo-4,5-dihydro-1,3-thiazol-5-yl]-N-(3-chloro-2-methylphenyl)acetamide] | 201 to 202 |
| O=C(CC1SC(NC2CC3C=CC2C3)=NC1=O)Nc1ccccc1 (stereo not drawn) [Example 99, 2-[2-(Bicyclo[2.2.1]hept-5-en-2-ylamino)-4-oxo-4,5-dihydro-1,3-thiazol-5-yl]-N-phenylacetamide] | 216 to 217 |
| O=C(CC1SC(NC2CC3C=CC2C3)=NC1=O)Nc1cccc(C(=O)O)c1 (stereo not drawn) [Example 103, 3-({[2-(Bicyclo[2.2.1]hept-5-en-2-ylamino)-4-oxo-4,5-dihydro-1,3-thiazol-5-yl]acetyl}amino)benzoic acid] | 242 |
| O=C(CC1SC(NC2CCCCC2)=NC1=O)Nc1ccccc1Cl (stereo not drawn) [Example 97, N-(2-Chlorophenyl)-2-[2-(cyclohexylamino)-4-oxo-4,5-dihydro-1,3-thiazol-5-yl]acetamide] | 183 |
| O=C(CC1SC(NC2CC3C=CC2C3)=NC1=O)NCc1ccccc1 (stereo not drawn) [Example 74, N-Benzyl-2-[2-(bicyclo[2.2.1]hept-5-en-2-ylamino)-4-oxo-4,5-dihydro-1,3-thiazol-5-yl]acetamide] | 206 to 207 |
| O=C(CC1SC(NC2CC3C=CC2C3)=NC1=O)Nc1ccccc1C(=O)c1ccccc1 (stereo not drawn) [Example 102, N-(2-benzoylphenyl)-2-[2-(Bicyclo[2.2.1]hept-5-en-2-ylamino)-4-oxo-4,5-dihydro-1,3-thiazol-5-yl]acetamide] | 191 to 192 |
| O=C(CC1SC(NC2CC3C=CC2C3)=NC1=O)Nc1ccc2cn[nH]c2c1 (stereo not drawn) [Example 100, 2-[2-(Bicyclo[2.2.1]hept-5-en-2-ylamino)-4-oxo-4,5-dihydro-1,3-thiazol-5-yl]-N-1H-indazol-6-ylacetamide] | 222 to 223 |
| CCNC(=O)CC1SC(NC2CC3C=CC2C3)=NC1=O (stereo not drawn) [Example 104, 2-[2-(Bicyclo[2.2.1]hept-5-en-2-ylamino)-4-oxo-4,5-dihydro-1,3-thiazol-5-yl]-N-ethylacetamide] | 187 to 188 |

The remaining lines, values ahead:

| melting point [°C] | SMILES |
| --- | --- |
| 149 to 150 | CN(C(=O)CC1SC(NC2CC3C=CC2C3)=NC1=O)c1ccccc1Cl (stereo not drawn) [Example 107, 2-[2-(Bicyclo[2.2.1]hept-5-en-2-ylamino)-4-oxo-4,5-dihydro-1,3-thiazol-5-yl]-N-(2-chlorophenyl)-N-methylacetamide] |
| 175 to 176 | COc1ccccc1OC(=O)CC1SC(NC2CC3C=CC2C3)=NC1=O (stereo not drawn) [Example 281, 2-Methoxyphenyl [2-(bicyclo[2.2.1]hept-5-en-2-ylamino)-4-oxo-4,5-dihydro-1,3-thiazol-5-yl]acetate] |
| 203 to 204 | O=C(CC1SC(NC2CC3C=CC2C3)=NC1=O)Oc1cccc(N2CCOCC2)c1 (stereo not drawn) [Example 282, 3-Morpholin-4-ylphenyl [2-(bicyclo[2.2.1]hept-5-en-2-ylamino)-4-oxo-4,5-dihydro-1,3-thiazol-5-yl]acetate] |
| 244 to 245 | O=C(CC1SC(NC2CC3C=CC2C3)=NC1=O)c1ccc(Cl)cc1 (stereo not drawn) [Example 283, 2-(Bicyclo[2.2.1]hept-5-en-2-ylamino)-5-[2-(4-chlorophenyl)-2-oxoethyl]-1,3-thiazol-4(5H)-one] |
| 205 | CNC(=O)CC1SC(NC2CC3C=CC2C3)=NC1=O (stereo not drawn) [Example 105, 2-[2-(Bicyclo[2.2.1]hept-5-en-2-ylamino)-4-oxo-4,5-dihydro-1,3-thiazol-5-yl]-N-methylacetamide] |
| 232 | O=C(O)CC1SC(NC2CC3C=CC2C3)=NC1=O (stereo not drawn) [Example 288, [2-(Bicyclo[2.2.1]hept-5-en-2-ylamino)-4-oxo4,5-dihydro-1,3-thiazol-5-yl]acetic acid] |
| 211 | O=C(CC1SC(NC2CC3C=CC2C3)=NC1=O)Oc1ccccc1Cl (stereo not drawn) [Example 279, 2-Chlorophenyl [2-(bicyclo[2.2.1]hept-5-en-2-ylamino)-4-oxo-4,5-dihydro-1,3-thiazol-5-yl]acetate] |

biological target: T1, human 11-β-hydroxysteroid dehydrogenase type-1 enzyme (11-β-HSD1) (Homo sapiens, UniProt P28845); assay: Scintillation Proximity Assay (11-β-HSD1 enzyme assay); assay type: biochemical; settings: calculated from IC50 (Cheng Prushoff); tritiated Cortisone/NADPH 175 nM/181 μM; enzyme expressed in Pichia pastoris
T1 construct: made in house; host or cells: Pichia pastoris
Text: Scintillation Proximity Assay
[1,2(n)-^3H]-cortisone was purchased from Amersham Pharmacia Biotech. Anti-cortisol monoclonal mouse antibody, clone 6D6.7 was obtained from Immunotech and Scintillation proximity assay (SPA) beads coated with monoclonal antimouse antibodies were from Amersham Pharmacia Biotech. NADPH, tetrasodium salt was from Calbiochem and glucose-6-phosphate (G-6-P) was supplied by Sigma. The human 11-β-hydroxysteroid dehydrogenase type-1 enzyme (11-β-HSD1) was expressed in Pichia pastoris. 18-β-glycyrrhetinic acid (GA) was obtained from Sigma. The serial dilutions of the compounds were performed on a Tecan Genesis RSP 150. Compounds to be tested were dissolved in DMSO (1 mM) and diluted in 50 mM Tris-HCl, pH 7.2 containing 1 mM EDTA.
The multiplication of plates was done on a WallacQuadra. The amount of the product [^3H]-cortisol, bound to the beads was determined in a Packard, Top Count microplate liquid scintillation counter.
The 11-β-HSD1 enzyme assay was carried out in 96 well microtiter plates (Packard, Optiplate) in a total well volume of 220 μL and contained 30 mM Tris-HCl, pH 7.2 with 1 mM EDTA, a substrate mixture tritiated Cortisone/NADPH (175 nM/181 μM), G-6-P (1 mM) and inhibitors in serial dilutions (9 to 0.15 μM). Reactions were initiated by the addition of human 11-β-HSD1, either as Pichia pastoris cell homogenate or microsomes prepared from Pichia pastoris (the final amount of enzyme used was varied between 0.057 to 0.11 mg/mL). Following mixing, the plates were shaken for 30 to 45 minutes at room temperature. The reactions were terminated with 10 μL 1 mM GA stop solution. Monoclonal mouse antibody was then added (10 μL of 4 μM) followed by 100 μL of SPA beads (suspended according to the manufacturers instructions). Appropriate controls were set up by omitting the 11-β-HSD1 to obtain the non-specific binding (NSB) value.
The plates were covered with plastic film and incubated on a shaker for 30 minutes, at room temperature, before counting. The amount of [^3H]-cortisol, bound to the beads was determined in a microplate liquid scintillation counter. The calculation of the Ki values for the inhibitors was performed by use of Activity Base. The Ki value is calculated from IC50 and the Km value is calculated using the Cheng Prushoff equation (with reversible inhibition that follows the Michaelis-Menten equation): Ki=IC50(1+[S]/Km) [Cheng, Y. C.; Prushoff, W. H. Biochem. Pharmacol. 1973, 22, 3099-3108]. The IC50 is measured experimentally in an assay wherein the decrease of the turnover of cortisone to cortisol is dependent on the inhibition potential of each substance. The Ki values of the compounds of the present invention for the 11-β-HSD1 enzyme lie typically between about 10 nM and about 10 μM.

T1 sequence (P28845 whole entry): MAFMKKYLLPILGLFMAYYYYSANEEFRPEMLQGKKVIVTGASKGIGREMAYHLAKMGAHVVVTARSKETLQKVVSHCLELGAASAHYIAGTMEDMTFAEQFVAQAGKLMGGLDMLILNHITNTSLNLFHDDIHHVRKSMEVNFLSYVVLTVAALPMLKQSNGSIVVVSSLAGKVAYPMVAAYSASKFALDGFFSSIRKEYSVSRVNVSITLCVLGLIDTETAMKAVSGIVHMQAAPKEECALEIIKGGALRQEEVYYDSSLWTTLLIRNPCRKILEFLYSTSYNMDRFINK

| Ki [nM] | SMILES |
| --- | --- |
| 709 | Cc1c(Cl)cccc1NC1=NC(=O)C(CC(=O)N(C)c2ccccc2)S1 (stereo not drawn) [Example 109, 2-{2-[(3-chloro-2-methylphenyl)amino]-4-oxo-4,5-dihydro-1,3-thiazol-5-yl}-N-methyl-N-phenylacetamide] |
| 384 | CCC(C)CNC1=NC(=O)C(CC(=O)N2CCCc3ccccc32)S1 (stereo not drawn) [Example 125, 5-[2-(3,4-dihydroquinolin-1(2H)-yl)-2-oxoethyl]-2-[(2-methylbutyl)amino]-1,3-thiazol-4(5H)-one] |
| 535 | O=C1N=C(NC2(c3ccc(Cl)cc3)CCC2)SC1CCNc1ccccc1 (stereo not drawn) [Example 335, 5-(2-anilinoethyl)-2-{[1-(4-chlorophenyl)cyclobutyl]amino}-1,3-thiazol-4(5H)-one hydrobromide] |
| 559 | O=C(NCCC1SC(NC2CCCCCC2)=NC1=O)Nc1ccccc1Cl (stereo not drawn) [Example 261, N-(2-chlorophenyl)-N′-{2-[2-(cycloheptylamino)-4-oxo-4,5-dihydro-1,3-thiazol-5-yl]ethyl}urea] |
